This assay addresses T1, cathepsin K (Homo sapiens, UniProt P43235).
T1 sequence (P43235 115-329): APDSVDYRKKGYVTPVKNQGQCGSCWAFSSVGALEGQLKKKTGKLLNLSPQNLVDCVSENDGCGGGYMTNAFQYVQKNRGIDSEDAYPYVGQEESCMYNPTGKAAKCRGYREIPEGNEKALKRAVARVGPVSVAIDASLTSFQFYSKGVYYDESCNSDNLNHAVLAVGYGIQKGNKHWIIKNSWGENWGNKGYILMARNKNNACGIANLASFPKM
The assay is described as follows: Measurement of cathepsin K inhibitory activity. It counts as biochemical. The settings on record: Dixon plot, 37° C., pH 5.5. How it is done: 65 μL of cathepsin K enzyme reaction buffer (50 mmol/L of 2-(N-morpholino)ethanesulfonate, 2 mmol/L of ethylenediaminetetraacetate (EDTA) and 4 mmol/L of dithiothreitol (DTT) were mixed to adjust to pH 5.5), 5 μL of cysteine protease inhibitor solution of several concentrations, 20 μL of synthesized substrate (t-butyloxycarbonyl-L-alanyl-glycyl-L-prolyl-L-arginine-4-methyl-chromanyl-7-amide) solution of several concentrations and 10 μL of cathepsin K enzyme solution were mixed and the increase of fluorescence intensity when reacted at 37° C. was measured (λex (excitation wavelength)=355 nm, λem (fluorescence wavelength)=460 nm). As to the substrate and the compound of the present invention, enzyme reactions were carried out in combination of several appropriate concentrations and Dixon plotting was prepared, to define the absolute value of X-coordinate of the intersection point of the graph as Ki value.

pKi: −log10 of the molar value.

Broadly, the pKi is the negative decadic logarithm of the Ki, by convention in mol/L.

Regarding `CC(C)(C)CC(NC(=O)C1CCCCCC1)C(=O)C(=O)NN1CCCS1(=O)=O` (stereo not drawn) [2(6)], the pKi was 7.85.

Consider `CC(C)(C)CC(NC(=O)C1CCCCC1)C(=O)C(=O)NN1C(=O)CCC1=O` (stereo not drawn) [example 5], for which the pKi is 8.40. Regarding `CC(C)C[C@H](NC(=O)C1CCCCC1)C(=O)C(=O)NN=C1SCCN1C` [8(1)], the pKi is 8.60.

For the origin of these results see US7655804B2, “Diketohydrazine derivative compounds and drugs containing the compounds as the active ingredient” (Ono Pharmaceutical Co., Ltd., priority 2002, dated 2010).
